According to article PMC7251097, “Aspartate/asparagine-β-hydroxylase: a high-throughput mass spectrometric assay for discovery of small molecule inhibitors” (Scientific Reports, 2020):
Structures can show the parent of a compound that is named as a salt. Where two headings read alike, the source gives them in different places.

Biological target: T1, His6-AspH315–758 (human aspartate/asparagine-β-hydroxylase, AspH) (Homo sapiens, UniProt Q12797)
T1 construct: N-Terminally His6-tagged human AspH315–758 (His6-AspH315–758) was produced in E. coli BL21 (DE3) cells; made in house; host or cells: E. coli BL21 (DE3), pET-28a(+) vector
T1 sequence (Q12797 315-758): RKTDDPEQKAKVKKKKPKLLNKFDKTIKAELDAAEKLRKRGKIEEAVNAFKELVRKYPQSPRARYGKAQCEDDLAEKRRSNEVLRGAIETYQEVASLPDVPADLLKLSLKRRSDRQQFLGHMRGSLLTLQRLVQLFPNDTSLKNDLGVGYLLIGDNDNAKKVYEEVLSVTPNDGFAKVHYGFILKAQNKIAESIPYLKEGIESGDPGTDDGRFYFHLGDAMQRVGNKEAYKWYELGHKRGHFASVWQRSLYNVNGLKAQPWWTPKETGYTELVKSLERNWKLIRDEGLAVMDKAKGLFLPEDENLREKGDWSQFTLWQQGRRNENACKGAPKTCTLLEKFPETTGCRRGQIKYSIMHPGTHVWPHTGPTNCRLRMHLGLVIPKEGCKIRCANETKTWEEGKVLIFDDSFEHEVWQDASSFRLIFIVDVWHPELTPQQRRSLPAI
Test: SPE-MS AspH inhibition assay (LOPAC screen at fixed 20 μM and IC50 dose-response), hydroxylation of cyclic peptide hFX-CP101–119
Assay type: biochemical

[1] = LOPAC compound at fixed 20 uM, plate 1, normalised to DMSO and 2,4-PDCA controls
[2] = LOPAC Plate 4, compound at 20 uM, substrate conversion
[3] = LOPAC Plate 4, compound at 20 uM
[4] = LOPAC compound at fixed 20 uM, substrate conversion, plate 1
[5] = LOPAC compound at 20uM, plate 3, conversion of substrate peptide
[6] = LOPAC compound at 20uM, plate 2, conversion of substrate peptide
[7] = LOPAC compound at 20uM, plate 2, normalised to DMSO and 2,4-PDCA controls
[8] = LOPAC Plate 4, compound at 20 uM, read-out: % inhibition
[9] = read-out: Plate 2 (% inhibition)

O=C(O)/C=C\C(=O)O.O=C(O)/C=C\C(=O)O.c1cc(CN2CCCCC2)cc(OCCCNc2nc3ccccc3s2)c1 [SKF 95282 dimaleate]
% conversion: 24.14%

NC(CCCP(=O)(O)O)C(=O)O (racemic) [(±)-2-Amino-5-phosphonopentanoic acid]
Plate 1 (% conversion): 39.06% | Plate 1 (% inhibition) [1]: -9.50%

Cc1ccc(O)c(N=Nc2ccccc2)n1 [SIB 1757]
% conversion [2]: 30.83%

COC1(C2=NCCN2)COc2ccccc2O1.Cl (stereo not drawn) [RX 821002 hydrochloride]
% inhibition [3]: -13.78% | % conversion [2]: 41.17%

Nc1ccn([C@@H]2O[C@H](CO)[C@@H](O)C2(F)F)c(=O)n1 [Gemcitabine hydrochloride]
Plate 1 (% inhibition) [1]: 11.04% | Plate 1 (% conversion) [4]: 32.17%

NCCCC(=O)O [GABA]
Plate 1 (% inhibition) [1]: -1.98% | Plate 1 (% conversion) [4]: 36.54%

C#CCN(C)CCCOc1ccc(Cl)cc1Cl [Clorgyline hydrochloride]
Plate 3 (% conversion) [5]: 42.76%

C[C@@](Cc1ccc(O)c(O)c1)(NN)C(=O)O [S-(-)-Carbidopa]
Plate 2 (% conversion) [6]: 7.52% | Plate 2 (% inhibition) [7]: 84.92%

CSc1ccc2c(c1)C(N1CCN(C)CC1)Cc1ccccc1S2 (stereo not drawn) [Methiothepin mesylate]
Plate 3 (% conversion) [5]: 47.65%

Cn1c(=O)c2[nH]c(-c3ccc(S(=O)(=O)O)cc3)nc2n(C)c1=O [8-(p-Sulfophenyl)theophylline]
Plate 1 (% inhibition) [1]: 51.62% | Plate 1 (% conversion) [4]: 18.54%

CO[C@@]1(NC(=O)CSCC#N)C(=O)N2C(C(=O)O)=C(CSc3nnnn3C)CS[C@@H]21 [Cefmetazole sodium]
Plate 1 (% inhibition) [1]: -3.81% | Plate 1 (% conversion) [4]: 37.15%

O=P(O)(O)C(O)(Cn1ccnc1)P(=O)(O)O [Zoledronic acid monohydrate]
Plate 3 (% conversion): 37.14%

CN1CCC(=C2c3ccccc3C=Cc3ccccc32)CC1 [Cyproheptadine hydrochloride]
Plate 1 (% inhibition) [1]: -17.18% | Plate 1 (% conversion) [4]: 41.64%

CC1=C(C(=O)O)N2C(=O)[C@@H](NC(=O)[C@H](N)C3=CCC=CC3)[C@H]2SC1 [Cephradine]
Plate 1 (% inhibition) [1]: 23.03% | Plate 1 (% conversion) [4]: 28.14%

CCCn1c(=O)[nH]c(=O)c2nc[nH]c21 [3-n-Propylxanthine]
Plate 3 (% conversion) [5]: 38.43%

CN/C(=N/CCSCc1nc[nH]c1C)NC#N [Cimetidine]
Plate 1 (% inhibition) [1]: -0.45% | Plate 1 (% conversion) [4]: 36.02%

C[N+](C)(C)CCOC(N)=O [Carbachol]
Plate 1 (% inhibition) [1]: -3.17% | Plate 1 (% conversion) [4]: 36.94%

Cl.Oc1cc2c(cc1O)C(c1ccccc1)CNCC2 (racemic) [(±)-SKF-38393 hydrochloride]
Plate 2 (% conversion): 10.11% | Plate 2 (% inhibition) (20 µM): 77.21%

Br.NCc1cc(O)no1 [Muscimol hydrobromide]
Plate 2 (% conversion): 37.87% | Plate 2 (% inhibition) (20 µM): -5.71%

Br.CCCN1CCC2c3cc(O)ccc3CCC21 (racemic) [cis(+/-)-8-OH-PBZI hydrobromide]
Plate 3 (% conversion) [5]: 33.20%

O=C(O)Cc1ccccc1Nc1c(Cl)cccc1Cl [Diclofenac sodium]
Plate 2 (% conversion) [6]: 32.33% | inhibition at 20 µM (LOPAC compound at 20uM, plate 2, normalised to DMSO and 2,4-PDCA controls, read-out: Plate 2 (% inhibition)): 10.8%

C[C@H]1O[C@@H](n2cc(F)c(=O)[nH]c2=O)[C@H](O)[C@@H]1O [5-fluoro-5-deoxyuridine]
Plate 2 (% conversion) [6]: 36.33% | Plate 2 (% inhibition) [7]: -1.12%

Cc1ccc([N+](=O)[O-])cc1S(=O)(=O)N(C)C [BRL 50481]
Plate 1 (% conversion): 38.84% | Plate 1 (% inhibition): -8.84%

Nc1ncnc2c1ncn2C1CCCO1 (stereo not drawn) [SQ 22536]
% conversion: 37.42%

C[N+](C)(C)CC=O [Betaine aldehyde chloride]
Plate 1 (% inhibition) [1]: -3.10% | Plate 1 (% conversion) [4]: 36.91%

CC(C)NCC(O)c1ccc(NS(C)(=O)=O)cc1.Cl (racemic) [(±)-Sotalol hydrochloride]
% inhibition [3]: -12.79% | % conversion [2]: 40.83%

Cc1[nH]c(=O)c(C#N)cc1-c1ccncc1 [Milrinone]
Plate 3 (% conversion) [5]: 40.58%

C=C[C@H]1C[N@@]2CC[C@H]1C[C@@H]2[C@@H](O)c1ccnc2ccc(OC)cc12 [Quinidine sulfate]
% conversion [2]: 33.25%

CCC(=O)c1ccc2c(c1)N(CCCN(C)C)c1ccccc1S2 [Propionylpromazine hydrochloride]
% conversion [2]: 44.67% | inhibition at 20 µM [8]: -24%

CCN(CC)CCCCCCCCOC(=O)c1cc(OC)c(OC)c(OC)c1.Cl [TMB-8 hydrochloride]
Plate 1 (% inhibition) [1]: -14.63% | Plate 1 (% conversion) [4]: 40.78%

NC(CP(=O)(O)O)C(=O)O (racemic) [(±)-2-Amino-3-phosphonopropionic acid]
Plate 1 (% conversion): 38.27% | Plate 1 (% inhibition): -7.14%

CCCCc1ccc(C(=O)O)nc1 [Fusaric acid]
Plate 2 (% conversion): 28.15% | inhibition at 20 µM [9]: 23.3%

CC(C)C(N)C(=O)OCC(CO)OCn1cnc2c(=O)[nH]c(N)nc21.Cl.O (stereo not drawn) [Valganciclovir hydrochloride hydrate]
Plate 2 (% conversion) [6]: 38.77% | Plate 2 (% inhibition) [7]: -8.41%

Clc1nccc2c1ccc1ccccc12 [CBIQ]
Plate 1 (% inhibition) [1]: -13.62% | Plate 1 (% conversion) [4]: 40.45%

NC1CCN(O)C1=O (racemic) [(±)-HA-966]
Plate 1 (% conversion): 36.52% | Plate 1 (% inhibition): -1.94%

CN(C)S(=O)(=O)c1ccc2c(c1)/C(=C/c1cc3c([nH]1)CCCC3)C(=O)N2 [SU 6656]
% conversion [2]: 31.14% | inhibition at 20 µM [8]: 15.6%

CNCC(O)c1ccc(O)cc1 (racemic) [(±)-Synephrine]
% conversion: 25.88%

NNCCc1ccccc1 [Phenelzine sulfate]
inhibition at 20 µM: -1.74%

CCOc1ncc(S(=O)(=O)N2CCN(CC)CC2)cc1-c1nc2c(CC)n(CCOC)nc2c(=O)[nH]1.O=S(=O)(O)c1ccccc1 [Gisadenafil besylate salt]
Plate 1 (% conversion): 43.96% | Plate 1 (% inhibition): -24.07%

CC(C)c1ccc(CC(=O)N2CCC[C@@H](c3cccc(OC(C)(C)C(=O)O)c3)C2)cc1 [CP-775146]
Plate 5 (% conversion): 34.51% | Plate 5 (% inhibition): 5.31%

NC(=O)C(=O)O [Sodium Oxamate]
Plate 3 (% conversion) [5]: 31.22%

CCN(CC)CC#CCOC(=O)C(O)(c1ccccc1)C1CCCCC1 (stereo not drawn) [Oxybutynin Chloride]
Plate 3 (% conversion) [5]: 40.48%

C[C@@H](O)[C@H]1C(=O)N2C(C(=O)O)=C(SCCN=CN)C[C@H]12 [Imipenem monohydrate]
Plate 1 (% inhibition) [1]: 6.01% | Plate 1 (% conversion) [4]: 33.85%

COC(=O)[C@@H](N)CCCN=C(N)N[N+](=O)[O-].Cl
Plate 3 (% conversion) [5]: 34.54%

CNc1ccc2oc(C[C@H]3O[C@@]4(CC[C@H]3C)O[C@H]([C@H](C)C(=O)c3ccc[nH]3)[C@H](C)C[C@H]4C)nc2c1C(=O)O [Calcimycin, calcimycin, reference compound]
Plate 1 (% conversion): 2.02% | IC50 (IC50 [μM]): 4.19 ± 0.1 µM | inhibition at 20 µM (read-out: Inhibition at 20 µM [%]): 101%

CN(C)c1ccc(O)c2c1C[C@H]1C[C@H]3[C@H](N(C)C)C(O)=C(C(N)=O)C(=O)[C@@]3(O)C(O)=C1C2=O [Minocycline hydrochloride]
Plate 3 (% conversion) [5]: 8.64%

CC(=O)Oc1cc(C(C)C)c(OCCN(C)C)cc1C [Moxisylyte hydrochloride]
Plate 3 (% conversion) [5]: 37.49%

C=CCN1CC[C@]23c4c5ccc(O)c4O[C@H]2C(=O)CC[C@@]3(O)[C@H]1C5 [Naloxone hydrochloride]
Plate 3 (% conversion): 40.30%

NCCSSCCN [Cystamine dihydrochloride]
Plate 1 (% inhibition) [1]: -7.76% | Plate 1 (% conversion) [4]: 38.48%

Cc1oncc1C(=O)Nc1ccc(C(F)(F)F)cc1 [Leflunomide]
Plate 3 (% conversion) [5]: 37.93%

NC[C@H](O)c1ccc(O)c(O)c1.O=C(O)C(O)C(O)C(=O)O (racemic) [(±)-Norepinephrine (+)bitartrate]
Plate 1 (% inhibition) [1]: 92.57% | Plate 1 (% conversion) [4]: 4.78%

Cc1ccc(S(=O)(=O)N[C@@H](Cc2ccccc2)C(=O)CCl)cc1
% inhibition [3]: -4.78% | % conversion [2]: 38.10%

COc1ccc(OC)c(C(O)C(C)N)c1 (stereo not drawn) [Methoxamine hydrochloride]
Plate 3 (% conversion): 32.85%

CNC(=O)[C@H]1O[C@@H](n2cnc3c(NCc4ccc(N)cc4)ncnc32)[C@H](O)[C@@H]1O [AB-MECA]
Plate 1 (% inhibition) [1]: -6.25% | Plate 1 (% conversion) [4]: 37.97%

CS(=O)(=O)c1ccc(-n2nc(C(F)(F)F)cc2-c2ccc(F)cc2)cc1 [SC-58125]
Plate 3 (% conversion) [5]: 37.41% | Plate 5 (% inhibition) (plate 5 (Pfitzer), test compounds at fixed 20 μM): 0.65% | Plate 5 (% conversion) (plate 5 (Pfitzer), test compounds at fixed 20 μM, mean conversion DMSO 32.88): 36.09%

C[N+]1(C)[C@@H]2CC[C@H]1C[C@@H](OC(=O)C(CO)c1ccccc1)C2 (stereo partly drawn) [Atropine methyl bromide]
Plate 1 (% inhibition) [1]: -14.40% | Plate 1 (% conversion) [4]: 40.71%

C[N+](C)(C)CCCCCC[N+](C)(C)C [Hexamethonium bromide]
Plate 2 (% conversion): 40.56% | inhibition at 20 µM [9]: -13.8%
